{"source": "patent US9457321B2", "about": "“Furanone containing polymer compound with bacteria-adhesion properties” (Stellenbosch University, priority 2012, dated 2016)", "origin": "cited, not measured here", "tested_on": "P. aeruginosa, S. aureus, E. coli and Enterococci"}
{"compound": "CC1=C(O)C(=O)C(C)O1", "note": "(stereo not shown) [DMHF, 2,5-dimethyl-4-hydroxy-3(2H)-furanone]", "values": [{"measurement": "antimicrobial efficacy", "value": "exceptional antimicrobial efficacy"}]}
